The values below come from patent US12076464B2, “Drug eluting shape memory foam” (The Texas A&M University System, priority 2019, dated 2024).

What all share (type): physicochemical
A short description of series [1]: In vitro release of acriflavine from SMP foams into PBS at 37° C., fluorescence of supernatants. The method, then:
An embodiment includes a method for creating a drug-eluting SMP foam. The method includes incubating the foam in a 0.017 mg/mL acriflavine solution (e.g., 1 mg/mL in acriflavine solution dimethyl sulfoxide (DMSO)) that is mixed with varying PVA solutions of 0%, 1%, 2%, 3%, 10% (wt./vol) overnight on a rotator at room temperature (n=3). Different PVA concentrations may be used to increase drug viscosity and drug uptake onto or into the foam. In other embodiments PVA is held constant and acriflavine concentrations are varied (which changes the PVA viscosity). Foams may then be removed from the respective drug/PVA solutions and dried in a vacuum chamber for 5 days. The foams may then be incubated in 0.4 mL phosphate-buffered saline (PBS) at 37° C. Supernatants may be removed at various time points and measured for fluorescence at 416/514 nm (Ex/Em). Regarding in vitro release of acriflavine from HDI-based SMP foams, see FIG. 1. […] This may be because of the increased loading of acriflavine that is due to PVA (and PVA's affinity for the foam). […] In vitro release of acriflavine from non-reticulated TMHDI 60 foam is addressed in FIG. 3.

Series [2] can be described thus: Solubility in DMSO and water.
Series [3] in a line: Drug uptake (loading) onto or into SMP foam from drug/PVA solutions. How it is done:
An embodiment includes a method for creating a drug-eluting SMP foam. The method includes incubating the foam in a 0.017 mg/mL acriflavine solution (e.g., 1 mg/mL in acriflavine solution dimethyl sulfoxide (DMSO)) that is mixed with varying PVA solutions of 0%, 1%, 2%, 3%, 10% (wt./vol) overnight on a rotator at room temperature (n=3). Different PVA concentrations may be used to increase drug viscosity and drug uptake onto or into the foam. In other embodiments PVA is held constant and acriflavine concentrations are varied (which changes the PVA viscosity). Foams may then be removed from the respective drug/PVA solutions and dried in a vacuum chamber for 5 days. The foams may then be incubated in 0.4 mL phosphate-buffered saline (PBS) at 37° C. Supernatants may be removed at various time points and measured for fluorescence at 416/514 nm (Ex/Em). In an embodiment acriflavine is used as a cargo in the free drug form (which helps illustrate the release profile for drug solutions with different PVA concentrations). […] This may be due, at least in part, to the increased viscosity of the drug when combined with PVA, which enables the drug to be trapped within or on the pores present in the foam. […]

Regarding Acriflavine, the “acriflavine release from SMP foams (non-cumulative release curve)” value in series [1] (HDI-based SMP foams, FIG. 1, increasing PVA concentration) was “increases (or at least differs) with increasing PVA concentration”; in series [1] (non-reticulated TMHDI 60 (TH60) SMP foams, FIG. 3, increasing PVA concentration), “increased (or at least differs) with increasing PVA concentration”; in series [1] (reticulated HH80 SMP foams, FIG. 2, increasing PVA concentration) it was “increased (or at least differs) with increasing PVA concentration”. For the same compound, the release profile result is on record as “delayed burst release” in series [1] (drug solution with 0% PVA) and “immediate release” in series [1] (solutions with higher PVA concentrations). In series [2], the solubility entry was “soluble in both DMSO and water”. The “drug uptake onto or into the foam” value was “less drug uptake” in series [3] (drug solution without PVA (0% PVA), compared to solutions with increasing PVA concentration) and “increased drug uptake” in series [3] (increasing PVA concentrations, FIGS. 1, 2, 3).

With `COc1cccc2c1C(=O)c1c(O)c3c(c(O)c1C2=O)C[C@@](O)(C(=O)CO)C[C@@H]3O[C@H]1C[C@H](N)[C@H](O)[C@H](C)O1` [Doxorubicin], in series [2], the solubility result was “soluble in both DMSO and water”.
